Laboratory results: PubChem BioAssay (NCI)
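Five compound concentrations were applied to cells in 96-well plates for 48 hours; endpoints were derived by simple linear interpolation of the resulting dose-response curve. TGI marks complete inhibition of growth.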

What follows are molecules tested on 786-0 renal (assay: DTP human tumour cell line panel, 48 h).

`CC12CP(=O)(c3ccccc3)CC1C2(Cl)Cl` (stereo not drawn) and `C1=CC(N(c2ccccc2)C2C=CCCC2)CCC1` (stereo not drawn) cannot be ordered by TGI: greater than 100 µM for the first, greater than 100 µM for the second.

Going from `CCN1CCC(O)(c2ccc(OC)cc2)C(C(=O)c2ccc(OC)cc2)C1` (stereo not drawn) to `CC1CN(C(=O)CN2CCC(CCCCN(C)C)CC2)c2ccccc2NC1=O` (stereo not drawn), the TGI rises from 26.8 µM to greater than 100 µM.

With `[N-]=[N+]=N[C@H]1C[C@@H](CO)O[C@H]1n1cnc2c(N)ncnc21` the TGI was greater than 100 µM.

Each molecule was assayed on A498 renal (assay: DTP human tumour cell line panel, 48 h).

`CC1CN(C(=O)CN2CCC(CCCCN(C)C)CC2)c2ccccc2NC1=O` (stereo not drawn) and `C1=CC(N(c2ccccc2)C2C=CCCC2)CCC1` (stereo not drawn) cannot be ordered by TGI: greater than 100 µM for the first, greater than 100 µM for the second.

Each molecule was assayed on A549 NSCLC (assay: DTP human tumour cell line panel, 48 h).

`CC12CP(=O)(c3ccccc3)CC1C2(Cl)Cl` (stereo not drawn) and `C1=CC(N(c2ccccc2)C2C=CCCC2)CCC1` (stereo not drawn) cannot be ordered by TGI: greater than 100 µM for the first, greater than 100 µM for the second.

Going from `CCN1CCC(O)(c2ccc(OC)cc2)C(C(=O)c2ccc(OC)cc2)C1` (stereo not drawn) to `CC1CN(C(=O)CN2CCC(CCCCN(C)C)CC2)c2ccccc2NC1=O` (stereo not drawn), the TGI rises from 37 µM to greater than 100 µM.

Molecule `[N-]=[N+]=N[C@H]1C[C@@H](CO)O[C@H]1n1cnc2c(N)ncnc21` has a TGI greater than 100 µM.

Each molecule was assayed on ACHN renal (assay: DTP human tumour cell line panel, 48 h).

First: CCN1CCC(O)(c2ccc(OC)cc2)C(C(=O)c2ccc(OC)cc2)C1 (stereo not drawn)
Second: CC1CN(C(=O)CN2CCC(CCCCN(C)C)CC2)c2ccccc2NC1=O (stereo not drawn)
The TGI of the first is lower: 30.1 µM for the first, greater than 100 µM for the second.

`C1=CC(N(c2ccccc2)C2C=CCCC2)CCC1` (stereo not drawn) and `[N-]=[N+]=N[C@H]1C[C@@H](CO)O[C@H]1n1cnc2c(N)ncnc21` cannot be ordered by TGI: greater than 100 µM for the first, greater than 100 µM for the second.

Each molecule was assayed on CAKI-1 renal (assay: DTP human tumour cell line panel, 48 h).

Compared with `CCN1CCC(O)(c2ccc(OC)cc2)C(C(=O)c2ccc(OC)cc2)C1` (stereo not drawn), `CC1CN(C(=O)CN2CCC(CCCCN(C)C)CC2)c2ccccc2NC1=O` (stereo not drawn) is higher in TGI: 31.3 µM for the first, greater than 100 µM for the second.

`C1=CC(N(c2ccccc2)C2C=CCCC2)CCC1` (stereo not drawn) and `[N-]=[N+]=N[C@H]1C[C@@H](CO)O[C@H]1n1cnc2c(N)ncnc21` cannot be ordered by TGI: greater than 100 µM for the first, greater than 100 µM for the second.

Each molecule was assayed on CCRF-CEM leukemia (assay: DTP human tumour cell line panel, 48 h).

`CC12CP(=O)(c3ccccc3)CC1C2(Cl)Cl` (stereo not drawn) and `C1=CC(N(c2ccccc2)C2C=CCCC2)CCC1` (stereo not drawn) cannot be ordered by TGI: greater than 100 µM for the first, greater than 100 µM for the second.

For `CC1CN(C(=O)CN2CCC(CCCCN(C)C)CC2)c2ccccc2NC1=O` (stereo not drawn), the TGI was greater than 100 µM.

What follows are molecules tested on COLO 205 colon (assay: DTP human tumour cell line panel, 48 h).

`CC12CP(=O)(c3ccccc3)CC1C2(Cl)Cl` (stereo not drawn) and `C1=CC(N(c2ccccc2)C2C=CCCC2)CCC1` (stereo not drawn) cannot be ordered by TGI: greater than 100 µM for the first, greater than 100 µM for the second.

First: CCN1CCC(O)(c2ccc(OC)cc2)C(C(=O)c2ccc(OC)cc2)C1 (stereo not drawn)
Second: CC1CN(C(=O)CN2CCC(CCCCN(C)C)CC2)c2ccccc2NC1=O (stereo not drawn)
The TGI of the first is lower: 55.1 µM for the first, greater than 100 µM for the second.

`[N-]=[N+]=N[C@H]1C[C@@H](CO)O[C@H]1n1cnc2c(N)ncnc21` was tested, and the TGI was greater than 100 µM.

What follows are molecules tested on DLD-1 colon (assay: DTP human tumour cell line panel, 48 h).

`CC12CP(=O)(c3ccccc3)CC1C2(Cl)Cl` (stereo not drawn) and `C1=CC(N(c2ccccc2)C2C=CCCC2)CCC1` (stereo not drawn) cannot be ordered by TGI: greater than 100 µM for the first, greater than 100 µM for the second.

Going from `CCN1CCC(O)(c2ccc(OC)cc2)C(C(=O)c2ccc(OC)cc2)C1` (stereo not drawn) to `CC1CN(C(=O)CN2CCC(CCCCN(C)C)CC2)c2ccccc2NC1=O` (stereo not drawn), the TGI rises from 36.3 µM to greater than 100 µM.

For `[N-]=[N+]=N[C@H]1C[C@@H](CO)O[C@H]1n1cnc2c(N)ncnc21`, the TGI was greater than 100 µM.

What follows are molecules tested on DMS 114 small cell lung (assay: DTP human tumour cell line panel, 48 h).

`CC12CP(=O)(c3ccccc3)CC1C2(Cl)Cl` (stereo not drawn) and `C1=CC(N(c2ccccc2)C2C=CCCC2)CCC1` (stereo not drawn) cannot be ordered by TGI: greater than 100 µM for the first, greater than 100 µM for the second.

Going from `CCN1CCC(O)(c2ccc(OC)cc2)C(C(=O)c2ccc(OC)cc2)C1` (stereo not drawn) to `CC1CN(C(=O)CN2CCC(CCCCN(C)C)CC2)c2ccccc2NC1=O` (stereo not drawn), the TGI rises from 40.8 µM to greater than 100 µM.

`[N-]=[N+]=N[C@H]1C[C@@H](CO)O[C@H]1n1cnc2c(N)ncnc21` gave a TGI greater than 100 µM.

These molecules were tested on DMS 273 small cell lung (assay: DTP human tumour cell line panel, 48 h).

`CC12CP(=O)(c3ccccc3)CC1C2(Cl)Cl` (stereo not drawn) and `C1=CC(N(c2ccccc2)C2C=CCCC2)CCC1` (stereo not drawn) cannot be ordered by TGI: greater than 100 µM for the first, greater than 100 µM for the second.

Going from `CCN1CCC(O)(c2ccc(OC)cc2)C(C(=O)c2ccc(OC)cc2)C1` (stereo not drawn) to `CC1CN(C(=O)CN2CCC(CCCCN(C)C)CC2)c2ccccc2NC1=O` (stereo not drawn), the TGI rises from 50.2 µM to greater than 100 µM.

For `[N-]=[N+]=N[C@H]1C[C@@H](CO)O[C@H]1n1cnc2c(N)ncnc21`, the TGI was greater than 100 µM.

Each molecule was assayed on EKVX NSCLC (assay: DTP human tumour cell line panel, 48 h).

`CC12CP(=O)(c3ccccc3)CC1C2(Cl)Cl` (stereo not drawn) and `C1=CC(N(c2ccccc2)C2C=CCCC2)CCC1` (stereo not drawn) cannot be ordered by TGI: greater than 100 µM for the first, greater than 100 µM for the second.

Compared with `CCN1CCC(O)(c2ccc(OC)cc2)C(C(=O)c2ccc(OC)cc2)C1` (stereo not drawn), `[N-]=[N+]=N[C@H]1C[C@@H](CO)O[C@H]1n1cnc2c(N)ncnc21` is higher in TGI: 98 µM for the first, greater than 100 µM for the second.

These molecules were tested on HCC-2998 colon (assay: DTP human tumour cell line panel, 48 h).

`CC12CP(=O)(c3ccccc3)CC1C2(Cl)Cl` (stereo not drawn) and `CC1CN(C(=O)CN2CCC(CCCCN(C)C)CC2)c2ccccc2NC1=O` (stereo not drawn) cannot be ordered by TGI: greater than 100 µM for the first, greater than 100 µM for the second.

First: CCN1CCC(O)(c2ccc(OC)cc2)C(C(=O)c2ccc(OC)cc2)C1 (stereo not drawn)
Second: [N-]=[N+]=N[C@H]1C[C@@H](CO)O[C@H]1n1cnc2c(N)ncnc21
The TGI of the first is lower: 41.2 µM for the first, greater than 100 µM for the second.

The molecules below were run on HCT-116 colon (assay: DTP human tumour cell line panel, 48 h).

`CC12CP(=O)(c3ccccc3)CC1C2(Cl)Cl` (stereo not drawn) and `C1=CC(N(c2ccccc2)C2C=CCCC2)CCC1` (stereo not drawn) cannot be ordered by TGI: greater than 100 µM for the first, greater than 100 µM for the second.

Going from `CCN1CCC(O)(c2ccc(OC)cc2)C(C(=O)c2ccc(OC)cc2)C1` (stereo not drawn) to `CC1CN(C(=O)CN2CCC(CCCCN(C)C)CC2)c2ccccc2NC1=O` (stereo not drawn), the TGI rises from 52.4 µM to greater than 100 µM.

`[N-]=[N+]=N[C@H]1C[C@@H](CO)O[C@H]1n1cnc2c(N)ncnc21` gave a TGI greater than 100 µM.

These molecules were tested on HCT-15 colon (assay: DTP human tumour cell line panel, 48 h).

Compared with `CCN1CCC(O)(c2ccc(OC)cc2)C(C(=O)c2ccc(OC)cc2)C1` (stereo not drawn), `CC1CN(C(=O)CN2CCC(CCCCN(C)C)CC2)c2ccccc2NC1=O` (stereo not drawn) is higher in TGI: 43.1 µM for the first, greater than 100 µM for the second.
